Source: article PMC8838850, “Synthesis, Antimicrobial, Anti-Virulence and Anticancer Evaluation of New 5(4H)-Oxazolone-Based Sulfonamides” (Molecules, 2022)
Values after ≈ are worked out from the molar mass of the structure shown.

Tests used:
[1] = test system: P. aeruginosa ATCC 47,085; assay: Biofilm formation assay (crystal violet, light microscopy); format: cell-based, Pseudomonas aeruginosa; details: sub-MIC (½ MIC), crystal violet method
Experimental: Bacterial virulence is regulated via a quorum sensing (QS) system in an inducer/receptor manner. Diminishing bacterial virulence is an advantageous strategy to decrease the development of bacterial resistance. In this direction, anti-virulence and anti-QS activities have been explored in several studies as reviewed. The ability of P. aeruginosa or S. aureus to form biofilms was assayed in the absence or presence of tested compounds at sub-MIC. […] The experiment was conducted in triplicate and a one-way ANOVA test was employed to test the statistical significance using Graphpad Prism 8 software. The results were significant statistically where p values < 0.05. Moreover, microscopic visualization of biofilm under the effect of tested compounds was also performed by light microscopy. Representative images for the inhibitory effects on S. aureus and P. aeruginosa biofilm formation are shown (Figure 3C,D). The microscopic images show a marked reduction in both the thickness of and surface area covered by the biofilms in presence of the tested compound.
In order to evaluate the ability of the tested compounds to inhibit the biofilm formation, a strong biofilm forming P. aeruginosa ATCC 47,085 [47, 66] and S. aureus ATCC 6538 [67] strains were used. As described earlier, suspensions of tested strains were prepared from overnight cultures in TSB and their optical densities were adjusted to OD600 of 0.4 (1×10^8 CFU/mL). Aliquots of 10 μL of the suspensions were added to 1 mL amounts of fresh TSB with or without sub-MICs of tested compounds. […] The non-adherent cells were removed, the wells were washed with sterile PBS, and left to dry. The attached biofilm forming cells were fixed with methanol for 25 min and stained with 1% crystal violet for 30 min. The excess dye was washed out and the crystal violet staining adhered biofilm forming cells were eluted by glacial acetic acid (33%). The experiment was conducted in triplicate and the absorbance was measured at 590 nm. The absorbances of tested strains treated with different compounds were expressed as mean ± standard error of percentage change from untreated tested strains control. The percentages of biofilm inhibition were calculated employing the following formula: (absorbance of control—absorbance in presence of tested compounds)/absorbance of control.

Panc-1 [2] = assay: Caspase-Glo 3/7 apoptosis assay; format: cell-based, human; details: ½ IC50, IC50 or 2 ×IC50 for 6 h, vs untreated controls
Experimental: Caspases play critical roles in apoptosis. The apoptotic effects of selected compounds 5, 7 and 10 on pancreatic cell line Panc-1 were tested by quantification of caspase 3/7 using Caspase-Glo 3/7 assay kit (Promega, Fitchburg, MA, USA) as previously described. Briefly, cells were treated with or without compounds 5, 7 and 10 (½ IC50, IC50, or 2 ×IC50) for 6 h. The prepared reagent Caspase-Glo 3/7 was added in equal volumes to cells, gently mixed, and incubated for 60 min at room temperature. The luminescence was measured, and the activity of caspase was presented as a percentage change from the untreated control.

S. aureus = assay: Assay of hemolytic activity; format: cell-based, Staphylococcus aureus; details: sub-MIC
Experimental: The anti-virulence effects of compounds 5, 7 and 10 on hemolytic activity of tested P. aeruginosa and S. aureus strains were assessed as described previously. Optically adjusted bacterial cultures treated or untreated with tested compounds at sub-MIC were centrifuged, and 0.5 mL of supernatants were mixed with fresh 0.8 mL 2% erythrocyte (obtained from experimental animals) suspension in saline, and incubated for 2 h at 37 °C. A complete hemolysis positive control was prepared by addition of sodium dodecyl sulphate (SDS) to erythrocyte suspension, and negative control was prepared by incubation of erythrocytes in LB broth under the same conditions. After centrifugation, the absorbances of the lysed erythrocytes were measured at 540 nm by Biotek spectrofluorometer (Biotek, Winooski, VT, USA). The experiment was performed in triplicate, and the hemolysis of tested compound treated cultures were expressed as mean ± standard error of percentages compared with those obtained from untreated control cultures using the formula: (absorbance in presence or absence of tested compounds—absorbance of negative control)/(absorbance of positive control—absorbance of negative control).

Panc-1 [3] = assay: SRB cellular proliferation assay; format: cell-based, human; details: Homo sapiens, Panc-1 cells, mean ± SD (n = 3), read-out: IC50
Experimental: (§1) The pancreatic human cancer cell lines BxPC-3 and Panc-1, the human hepatocellular carcinoma (HepG-2), and the normal immortalized pancreatic cell line HPDE, that were used in this study, were obtained from the American Type Culture Collection (Rockville, USA). Cell lines were cultured and treated with the tested compounds or dimethyl sulfoxide (DMSO) as previously described. Cells were cultivated in DMEM medium (Invitrogen, Carlsbad, CA, USA), supplemented with streptomycin, penicillin and fetal bovine serum (FCS) (Invitrogen, Carlsbad, CA, USA). The sulforhodamine B (SRB) assay was employed to assess the anti-proliferative effects of tested compounds on cancer cells. Cell lines were incubated and regularly treated with DMSO or increasing doses of tested compounds for 48 h. The cells were fixed with 10% trichloroacetic acid and stained with SRB fluorescent dye for 30 min. Then, the bounded SRB dye to cellular proteins was dissolved in 10 mM Tris base after washing excess dye with 1% acetic acid. The absorbance was measured at 510 nm in a reader (Biotek, Winooski, VT, USA).

HepG-2 = assay: SRB cellular proliferation assay; format: cell-based, human; details: Homo sapiens, HepG2, HepG-2 cells, mean ± SD (n = 3), read-out: IC50
Experimental: as §1

BxPC-3 = assay: SRB cellular proliferation assay; format: cell-based, human; details: Homo sapiens, BxPC-3 cells, mean ± SD (n = 3), read-out: IC50
Experimental: as §1

[4] = test system: Pseudomonas aeruginosae ATCC 47085; assay: MIC by agar dilution; format: cell-based, Pseudomonas aeruginosa; details: ATCC47085, 37 °C, 20 h, read-out: Minimum inhibitory concentration (MIC)
Experimental: The MICs of the synthesized compound were determined by agar dilution method according to the Clinical Laboratory and Standards Institute Guidelines (CLSI, 2015). Briefly, the tested strains were incubated overnight in tryptic soy broth (TSB) (Oxoid, United Kingdom) and then diluted in Muller–Hinton (MH) broth (Oxoid, United Kingdom) to turbidity approximating to the equivalent of 0.5 McFarland standard. The suspensions were further diluted with sterile saline (1:10) and standardized inoculums (approximately 10^4 CFU per spot) were spotted on the surfaces of MH agar (Oxoid, United Kingdom) plates containing different concentrations of tested compounds and a control plate. The MICs were the lowest concentrations that inhibit growth on the plates after incubation at 37 °C for 20 h.

**Q.** For `COc1ccc(/C=C2/N=C(c3ccccc3NS(=O)(=O)c3ccc(C)cc3)OC2=O)cc1` [Compound 9b, (E)-N-(2-(4-(4-Methoxybenzylidene)-5-oxo-4,5-dihydrooxazol-2-yl)phenyl)-4-methylbenzenesulfonamide], which “Inhibition of biofilm formation” value [1] is on record?
**A.** highest abilities to inhibit biofilm formation

**Q.** And the “Apoptotic effect, caspase 3/7 levels” value (Panc-1 [2])?
**A.** triggered apoptosis through increasing the amounts of activated caspases 3/7

**Q.** What about the Hemolytic activity (S. aureus) of the same molecule?
**A.** significantly diminished the hemolytic activity

**Q.** What about the IC50 (Panc-1 [3]) of the same molecule?
**A.** 13.6 ± 1.16 µg/mL (≈ 30.4 µM)

**Q.** What about the IC50 (HepG-2) of the same molecule?
**A.** 8.53 ± 1.1 µg/mL (≈ 19 µM)

**Q.** And the IC50 (BxPC-3)?
**A.** 14.9 ± 4.19 µg/mL (≈ 33.2 µM)

**Q.** What about the MIC [4] of the same molecule?
**A.** 4 µg/mL (≈ 8.92 µM)

**Q.** What does the source list for `Cc1ccc(S(=O)(=O)Nc2ccccc2C2=N/C(=C/c3ccccc3)C(=O)O2)cc1` [Compound 9a, (E)-N-(2-(4-Benzylidene-5-oxo-4,5-dihydrooxazol-2-yl)phenyl)-4-methylbenzenesulfonamide]?
**A.** Inhibition of biofilm formation [1]: highest abilities to inhibit biofilm formation; Apoptotic effect, caspase 3/7 levels (Panc-1 [2]): triggered apoptosis through increasing the amounts of activated caspases 3/7; Hemolytic activity (S. aureus): significantly diminished the hemolytic activity; IC50 (Panc-1 [3]): 11.9 ± 0.76 µg/mL (≈ 28.6 µM); IC50 (HepG-2): 11 ± 2.39 µg/mL (≈ 26.2 µM); IC50 (BxPC-3): 14.4 ± 0.73 µg/mL (≈ 34.4 µM); MIC [4]: 8 µg/mL (≈ 19.1 µM)

**Q.** Which results are given for `Cc1ccc(S(=O)(=O)Nc2ccccc2C2=N/C(=C/c3ccc([N+](=O)[O-])cc3)C(=O)O2)cc1` [Compound 9f, (E)-4-Methyl-N-(2-(4-(4-nitrobenzylidene)-5-oxo-4,5-dihydrooxazol-2-yl)phenyl)benzenesulfonamide]?
**A.** Inhibition of biofilm formation [1]: highest abilities to inhibit biofilm formation; Apoptotic effect, caspase 3/7 levels (Panc-1 [2]): triggered apoptosis through increasing the amounts of activated caspases 3/7; Hemolytic activity (S. aureus): significantly diminished the hemolytic activity; IC50 (Panc-1 [3]): 12.6 ± 1.2 µg/mL (≈ 27.2 µM); IC50 (HepG-2): 6.39 ± 1.25 µg/mL (≈ 13.8 µM); IC50 (BxPC-3): 14.2 ± 1.87 µg/mL (≈ 30.6 µM); MIC [4]: 4 µg/mL (≈ 8.63 µM)
